Columns and labels:
ABCA1 mRNA = ABCA1 mRNA - HepG2 (qRT-PCR); type: cell-based, human
Source text: (§1) qRT-PCR. For cell samples, treated cells were lysed with RLT plus lysis buffer (Qiagen). RNA was isolated with Qiagen RNEASY® Plus columns per manufacturer instructions, then reverse-transcribed to cDNA using […]® III Reverse Transcriptase (200 U/μL, Invitrogen) per supplier protocol. qPCR experiments were either performed with TAQMAN® gene expression master mix (Invitrogen) on a StepOne™ qPCR instrument or with […]® SYBR® Green SuperMix (Quanta Biosciences) on CFX Connect™ Real-Time PCR Detection System (BioRad), with fold-change quantified by ΔΔCt. For animal samples, 100 mg tissue was homogenized in 1 mL acid-guanidinium-phenol based reagent sold under the tradename TRIZOL® (Ambion), mixed vigorously in chloroform, and separated by centrifugation. Aqueous layer containing RNA was added to Qiagen RNEASY® Plus column; remaining stops were as described above for cell lysates.

SREBF1 mRNA = SREBF1 mRNA - HepG2 (qRT-PCR); type: cell-based, human
Source text: as §1

RXRγ = biological target: T1, RXRγ (Homo sapiens, UniProt P48443); assay: RXRγ NHR screen, antagonist mode; settings: cell-based β-gal reporter assay, 10 μM
T1 sequence (P48443 1-463): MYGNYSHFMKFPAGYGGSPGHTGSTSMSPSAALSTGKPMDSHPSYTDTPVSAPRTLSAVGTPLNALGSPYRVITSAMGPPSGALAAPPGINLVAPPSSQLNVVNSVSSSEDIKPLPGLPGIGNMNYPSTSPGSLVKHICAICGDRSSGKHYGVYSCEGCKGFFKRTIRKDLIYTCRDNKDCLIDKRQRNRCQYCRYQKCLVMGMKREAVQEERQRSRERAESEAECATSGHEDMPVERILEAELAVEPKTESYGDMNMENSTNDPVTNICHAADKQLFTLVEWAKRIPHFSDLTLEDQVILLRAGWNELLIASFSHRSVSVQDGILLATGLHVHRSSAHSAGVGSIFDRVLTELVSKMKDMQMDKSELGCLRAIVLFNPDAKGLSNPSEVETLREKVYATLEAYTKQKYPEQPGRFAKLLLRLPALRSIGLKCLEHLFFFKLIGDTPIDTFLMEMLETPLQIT
Method: (§2) Receptor Binding Assays. Nuclear hormone (NHR) assays were performed by DiscoverX (Fremont, CA) on their NHR-Scan platform of cell-based protein-protein interaction assays. This platform uses a […] reporter that activates upon interaction of full-length receptor protein with steroid coactivator receptor peptides. In agonist mode, activity of CL2-57 at 10 μM was compared to maximal activity of published positive control agonists; in antagonist mode, reduction in activity with 10 μM CL2-57 from that observed at […] of published agonists was quantified.

PPARγ [1] = biological target: T2, PPARγ (Homo sapiens, UniProt P37231); assay: PPARγ NHR screen, antagonist mode; settings: cell-based β-gal reporter assay, 10 μM
T2 sequence (P37231 1-505): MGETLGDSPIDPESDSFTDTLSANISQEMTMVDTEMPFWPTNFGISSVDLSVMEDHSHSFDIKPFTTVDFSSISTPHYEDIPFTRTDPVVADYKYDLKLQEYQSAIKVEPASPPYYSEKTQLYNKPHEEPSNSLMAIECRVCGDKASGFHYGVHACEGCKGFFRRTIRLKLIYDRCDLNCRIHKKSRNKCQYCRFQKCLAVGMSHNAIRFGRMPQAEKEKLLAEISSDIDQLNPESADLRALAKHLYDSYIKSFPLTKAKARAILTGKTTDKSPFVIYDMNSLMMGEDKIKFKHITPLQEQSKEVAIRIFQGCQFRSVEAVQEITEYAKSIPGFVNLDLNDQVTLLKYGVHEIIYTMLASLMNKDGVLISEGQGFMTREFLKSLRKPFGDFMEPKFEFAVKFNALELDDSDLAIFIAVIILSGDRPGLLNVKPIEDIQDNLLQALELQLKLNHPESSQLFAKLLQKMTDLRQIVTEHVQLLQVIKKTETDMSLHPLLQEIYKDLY
Method: as §2

PPARγ [2] = biological target: T3, PPARγ (Homo sapiens, UniProt P37231); assay: LanthaScreen TR-FRET coactivator assay PPARγ (antagonism of pioglitazone); type: biochemical
T3 construct: purchased Thermo Fisher Scientific
T3 sequence (P37231 232-505 limits assumed): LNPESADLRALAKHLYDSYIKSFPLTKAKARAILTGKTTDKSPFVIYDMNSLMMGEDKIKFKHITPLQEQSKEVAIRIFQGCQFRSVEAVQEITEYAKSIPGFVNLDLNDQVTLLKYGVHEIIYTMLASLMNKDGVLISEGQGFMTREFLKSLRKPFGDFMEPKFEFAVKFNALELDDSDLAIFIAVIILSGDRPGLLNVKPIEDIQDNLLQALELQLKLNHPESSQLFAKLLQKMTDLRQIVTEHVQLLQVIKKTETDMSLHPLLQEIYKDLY
Method: TR-FRET Receptor Binding Assays. LanthaScreen” TR-FRET coactivator assay kits for LXRβ (Thermo Fisher Scientific) and PPARγ (Thermo Fisher Scientific) were performed according to manufacturer instructions using low-binding black 384-well plates and Synergy Neo2 plate reader. For the PPARγ assay, standardization was first performed with control agonist (pioglitazone), then run in two antagonist assays: dose-response of pioglitazone with or without a single concentration of CL2-57, and dose-response of CL2-57 cotreated with a single concentration (500 nM) of pioglitazone. Each compound dose was performed in quadruplicate on each plate, and each experiment was performed in triplicate.

C57Bl/6 control mice = assay: C57Bl/6 control mice, daily p.o. CL2-57 for one week; type: in vivo, mouse
CD1 mice = assay: CD1 mice, three daily p.o. treatments, LXR agonist adverse effects; type: in vivo, mouse; settings: 10 mg/kg p.o., three days
Source text: Neutrophil Counts. […] After final dose, blood samples were run on an Advia 120 analyzer (Bayer) for neutrophil counts.

Functional mode at RXRγ (RXRγ): weak antagonist | Functional mode at PPARγ (PPARγ [1]): weak antagonist | Activity in PPARγ TR-FRET binding assay (PPARγ [2]): Weak competitive antagonism | Right-shift in the TR-FRET dose-response for pioglitazone (PPARγ [2]; addition of 10 μM CL2-57, p<0.01): 2.1 fold | TR-FRET signal reduction (PPARγ [2]; constant pioglitazone concentration, CL2-57 at concentrations ≥1 μM): 20-45% | Hepatic lipogenesis (C57Bl/6 control mice; 10 mg/kg daily p.o. one week): low-magnitude increases | Plasma TG or cholesterol compared to vehicle controls (C57Bl/6 control mice; C57Bl/6 mice, one week daily p.o.): no changes
Structure (SMILES): CCOC(=O)c1cccc(NC(=O)c2sc(Cl)cc2S(=O)(=O)N(C)c2ccc(OCC)c(OCC)c2)c1 [CL2-57, ethyl 3-(5-chloro-3-(N-(3,4-diethoxyphenyl)-N-methylsulfamoyl)thiophene-2-carboxamido) benzoate]
ABCA1 mRNA - HepG2, activity of CL2-57 (10 μM) as % of T0901317 (1 μM) (ABCA1 mRNA; 10 μM): 60% | ABCA1 mRNA (ABCA1 mRNA; HepG2 hepatocarcinoma cells): Increased | SREBF1 mRNA - HepG2, activity of CL2-57 (10 μM) as % of T0901317 (1 μM) (SREBF1 mRNA): 39% | Circulating neutrophil levels (CD1 mice): did not affect | Plasma TG (CD1 mice): did not affect | Plasma cholesterol (CD1 mice): did not affect

— US20240199572A1, “COMPOUNDS, COMPOSITIONS, AND METHODS FOR TREATING TYPE 2 DIABETES AND DEMENTIA” (THE BOARD OF TRUSTEES OF THE UNIVERSITY OF ILLINOIS, priority 2021, published 2024)
